Paper PMC4192806 (Endocrinology and Metabolism, 2014)
No end group written: not given here.

Columns and labels:
human GLP1R = human GLP1R (Homo sapiens, UniProt P43220); assay: CRE-luc luciferase assay in GLP1R and CRE-luc cotransfected HEK293T cells; format: cell-based
[1] = target: DPP-IV activity of fetal bovine serum (Bos taurus, UniProt P81425); assay: Stability in 100% FBS, residual activity by GLP1R/CRE-luc luciferase assay; format: in vitro ADME; settings: FBS incubation, 37℃
Sequence of DPP-IV activity of fetal bovine serum (P81425 38-765 limits assumed): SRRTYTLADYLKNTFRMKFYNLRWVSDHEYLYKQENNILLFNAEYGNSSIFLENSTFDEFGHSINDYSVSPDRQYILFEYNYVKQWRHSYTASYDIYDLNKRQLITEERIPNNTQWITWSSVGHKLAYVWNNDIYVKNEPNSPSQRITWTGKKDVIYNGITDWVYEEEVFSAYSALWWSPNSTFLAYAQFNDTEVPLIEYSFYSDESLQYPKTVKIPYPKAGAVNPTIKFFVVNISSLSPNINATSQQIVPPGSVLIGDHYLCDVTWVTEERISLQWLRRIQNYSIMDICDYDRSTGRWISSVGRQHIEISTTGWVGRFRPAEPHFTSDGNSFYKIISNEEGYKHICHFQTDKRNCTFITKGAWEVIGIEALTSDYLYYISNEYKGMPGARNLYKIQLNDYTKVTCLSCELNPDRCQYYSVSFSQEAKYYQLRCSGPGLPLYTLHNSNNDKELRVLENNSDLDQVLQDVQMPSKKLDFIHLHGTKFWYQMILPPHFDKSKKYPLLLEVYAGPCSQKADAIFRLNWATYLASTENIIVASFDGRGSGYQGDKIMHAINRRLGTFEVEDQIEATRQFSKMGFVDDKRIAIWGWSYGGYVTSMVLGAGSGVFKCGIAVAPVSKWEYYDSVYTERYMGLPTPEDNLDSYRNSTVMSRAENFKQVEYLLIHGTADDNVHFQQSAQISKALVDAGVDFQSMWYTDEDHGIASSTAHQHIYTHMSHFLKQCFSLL

Sequence of human GLP1R (P43220 24-463): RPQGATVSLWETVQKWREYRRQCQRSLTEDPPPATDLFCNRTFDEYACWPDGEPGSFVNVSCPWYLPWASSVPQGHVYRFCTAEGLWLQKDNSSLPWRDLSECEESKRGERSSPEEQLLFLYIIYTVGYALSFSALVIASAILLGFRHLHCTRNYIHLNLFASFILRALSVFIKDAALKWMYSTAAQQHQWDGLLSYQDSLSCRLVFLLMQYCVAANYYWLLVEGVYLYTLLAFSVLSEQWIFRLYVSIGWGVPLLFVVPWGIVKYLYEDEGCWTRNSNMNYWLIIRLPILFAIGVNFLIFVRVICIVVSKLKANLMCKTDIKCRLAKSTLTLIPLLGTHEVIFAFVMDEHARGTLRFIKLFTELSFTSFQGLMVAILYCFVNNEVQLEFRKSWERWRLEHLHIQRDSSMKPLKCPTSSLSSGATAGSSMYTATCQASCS

With “HAEGTFTNDMTNYLEEKAAKEFVGWLIKGR-NH2 [xGLP, Xenopus GLP-1, reference compound]” the EC50 (human GLP1R) was 0.832 nM.

“HSEGTFTNDMTNYLEEKAAKEFVGWLIKGGPSSGAPPPS [xGLP-E4]” was tested, and the EC50 (human GLP1R) was 0.155 nM and the “stability in serum (overall comparison, words)” value [1] was “more stable in serum than wild-type human and xGLP”.
